Measured values from patent US20060040957A1, “BICYCLIC PYRIMIDINE MATRIX METALLOPROTEINASE INHIBITORS” (priority 2001, published 2006).
Where a name gives a salt, the structure may show the parent alone.

What was measured:
Type in all cases: biochemical
[1] = biological target: T1, MMP-7FL (full length matrilysin) (Homo sapiens, UniProt P09237); assay: Thiopeptolide substrate hydrolysis assay, MMP-7FL; conditions: HEPES pH 7.0, 22° C., read-out: IC50 (μM) Versus Certain MMPs: MMP-07 FL
T1 sequence (P09237 95-267): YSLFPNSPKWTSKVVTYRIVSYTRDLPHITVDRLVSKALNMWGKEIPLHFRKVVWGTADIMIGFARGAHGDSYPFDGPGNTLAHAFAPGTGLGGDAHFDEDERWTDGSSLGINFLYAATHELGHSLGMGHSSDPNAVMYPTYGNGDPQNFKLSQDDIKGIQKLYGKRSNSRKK
Text: (§1) The invention compounds of Formula I have been evaluated in standard assays for their ability to inhibit the catalytic activity of various MMP enzymes.
(§2) Thiopeptolide substrates show virtually no decomposition or hydrolysis at or below neutral pH in the absence of a matrix metalloproteinase enzyme.
(§3) Several representative compounds have been evaluated for their ability to inhibit various matrix metalloproteinase enzymes.

[2] = biological target: T2, MMP-2FL (full length Gelatinase A) (Homo sapiens, UniProt P08253); assay: Thiopeptolide substrate hydrolysis assay, MMP-2FL; conditions: HEPES pH 7.0, 22° C., read-out: IC50 (μM) Versus Certain MMPs: MMP-02 FL
T2 sequence (P08253 110-660): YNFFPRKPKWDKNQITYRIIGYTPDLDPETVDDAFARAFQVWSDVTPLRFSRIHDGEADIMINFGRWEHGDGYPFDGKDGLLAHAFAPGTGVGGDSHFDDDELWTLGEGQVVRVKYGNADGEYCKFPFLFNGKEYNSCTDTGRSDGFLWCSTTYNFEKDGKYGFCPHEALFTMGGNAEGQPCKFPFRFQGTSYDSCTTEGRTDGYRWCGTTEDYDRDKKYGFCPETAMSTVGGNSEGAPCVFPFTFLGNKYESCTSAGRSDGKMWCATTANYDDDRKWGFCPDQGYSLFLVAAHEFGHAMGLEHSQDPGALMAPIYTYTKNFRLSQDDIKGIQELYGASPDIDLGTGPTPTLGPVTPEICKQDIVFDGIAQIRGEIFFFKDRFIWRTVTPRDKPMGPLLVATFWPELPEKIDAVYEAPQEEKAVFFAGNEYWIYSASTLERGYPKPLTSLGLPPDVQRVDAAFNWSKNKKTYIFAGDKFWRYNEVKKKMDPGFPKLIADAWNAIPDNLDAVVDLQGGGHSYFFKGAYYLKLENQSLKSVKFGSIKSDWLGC
Text: as §1, §2, §3

[3] = biological target: MMP-9FL (full length Gelatinase B) (Homo sapiens, UniProt P14780); assay: Thiopeptolide substrate hydrolysis assay, MMP-9FL; conditions: HEPES pH 7.0, 22° C., read-out: IC50 (μM) Versus Certain MMPs: MMP-09 FL
MMP-9FL (full length Gelatinase B), sequence (P14780 94-707, species assumed): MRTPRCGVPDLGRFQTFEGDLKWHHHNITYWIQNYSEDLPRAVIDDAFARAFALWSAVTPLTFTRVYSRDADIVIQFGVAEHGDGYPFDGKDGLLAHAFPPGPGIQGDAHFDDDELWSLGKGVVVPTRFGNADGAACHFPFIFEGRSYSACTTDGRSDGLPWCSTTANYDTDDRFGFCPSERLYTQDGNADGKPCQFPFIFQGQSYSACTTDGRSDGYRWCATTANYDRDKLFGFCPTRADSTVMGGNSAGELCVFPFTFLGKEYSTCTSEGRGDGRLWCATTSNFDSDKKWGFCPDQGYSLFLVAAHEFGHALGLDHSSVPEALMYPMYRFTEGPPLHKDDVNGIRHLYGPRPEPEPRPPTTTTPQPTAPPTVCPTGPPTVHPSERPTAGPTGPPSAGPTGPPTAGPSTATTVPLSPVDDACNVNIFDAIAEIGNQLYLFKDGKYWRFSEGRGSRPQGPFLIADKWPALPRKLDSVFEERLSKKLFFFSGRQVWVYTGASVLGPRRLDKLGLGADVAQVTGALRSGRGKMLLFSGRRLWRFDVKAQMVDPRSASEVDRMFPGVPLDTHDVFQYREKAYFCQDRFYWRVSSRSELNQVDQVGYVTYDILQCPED
Text: as §1, §2, §3

[4] = biological target: MMP-14CD (catalytic domain of MMP-14) (Homo sapiens, UniProt P50281); assay: Thiopeptolide substrate hydrolysis assay, MMP-14CD; conditions: HEPES pH 7.0, 22° C., read-out: IC50 (μM) Versus Certain MMPs: MMP-14 CD
Text: as §1, §2, §3

Structure (SMILES) | IC50 [1] [µM] | IC50 [2] [µM] | IC50 [3] [µM] | IC50 [4] [µM]
O=C(NCc1ccncc1)c1cn2c(=O)n(Cc3ccccc3)c(=O)cc2s1 [Example 9, 6-Benzyl-5,7-dioxo-6,7-dihydro-5H-thiazolo[3,2-c]pyrimidine-2-carboxylic acid(pyridin-4-ylmethyl)-amide hydrochloride] | > 100 | > 100 | > 100 | > 100
Cc1c(=O)n(Cc2ccccc2)c(=O)n2cc(C(=O)NCc3cccc(F)c3)sc12 [Example 10, 6-Benzyl-8-methyl-5,7-dioxo-6,7-dihydro-5H-thiazolo[3,2-c]pyrimidine-2-carboxylic acid 3-fluoro-benzylamide] | 21 | > 100 | > 30 | > 30
O=C(NCc1ccccc1)c1cn2c(=O)n(Cc3ccncc3)c(=O)cc2s1 [Example 15, 6-(4-Pyridylmethyl)-5,7-dioxo-6,7-dihydro-5H-thiazolo[3,2-c]pyrimidine-2-carboxylic acid benzylamide hydrochloride] | > 100 | > 100 | > 100 | > 100
O=C(NCc1ccncc1)C1Cn2c(cc(=O)n(Cc3ccccc3)c2=O)S1 (stereo not drawn) [Example 22, 6-Benzyl-5,7-dioxo-2,3,6,7-tetrahydro-5H-thiazolo[3,2-c]pyrimidine-2-carboxylic acid(pyridin-4-ylmethyl)-amide] | > 100 | > 100 | > 100 | > 100
O=C(OCc1ccccc1)C1C[S+]([O-])c2cc(=O)n(Cc3ccccc3)c(=O)n21 (stereo not drawn) [Example 23, 6-Benzyl-1,5,7-trioxo-1,2,3,5,6,7-hexahydro-114-thiazolo[3,2-c]pyrimidine-3-carboxylic acid benzyl ester] | > 100 | > 100 | > 100 | > 100
Cc1cccc(CNC(=O)c2cn3c(=O)n(Cc4ccccc4)c(=O)c(C)c3s2)c1 [Example 28, 6-Benzyl-8-methyl-5,7-dioxo-6,7-dihydro-5H-thiazolo[3,2-c]pyrimidine-2-carboxylic acid 3-methyl-benzylamide] | 71 | > 30 | > 30 | > 100
Cc1c(=O)n(Cc2ccccc2)c(=O)n2cc(C(=O)NCc3ccc(F)cc3)sc12 [Example 30, 6-Benzyl-8-methyl-5,7-dioxo-6,7-dihydro-5H-thiazolo[3,2-c]pyrimidine-2-carboxylic acid 4-fluoro-benzylamide] | > 30 | > 30 | > 30 | > 30
COc1ccc(CNC(=O)c2cn3c(=O)n(Cc4ccccc4)c(=O)c(C=O)c3s2)cc1 [Example 32, 6-Benzyl-8-formyl-5,7-dioxo-6,7-dihydro-5H-thiazolo[3,2-c]pyrimidine-2-carboxylic acid 4-methoxy-benzylamide] | > 30 | > 100 | > 100 | > 30
Cc1c(=O)n(Cc2ccccc2)c(=O)n2cc(C(=O)NCc3ccncc3)sc12 [Example 36, 6-Benzyl-8-methyl-5,7-dioxo-6,7-dihydro-5H-thiazolo[3,2-c]pyrimidine-2-carboxylic acid(pyridin-4-ylmethyl)-amide hydrochloride] | > 100 | > 100 | > 30 | > 100
Cc1c(=O)n(Cc2ccccc2)c(=O)n2cc(C(=O)NCc3ccc(F)c(F)c3)sc12 [Example 43, 6-Benzyl-8-methyl-5,7-dioxo-6,7-dihydro-5H-thiazolo[3,2-c]pyrimidine-2-carboxylic acid 3,4-difluoro-benzylamide] | > 30 | > 30 | > 30 | > 100
Cc1c(=O)n(Cc2ccccc2)c(=O)n2cc(C(=O)NCc3cccnc3)sc12 [Example 44, 6-benzyl-8-methyl-5,7-dioxo-6,7-dihydro-5H-thiazolo[3,2-c]pyrimidine-2-carboxylic acid(pyridin-3-ylmethyl)-amide] | > 100 | > 100 | > 30 | > 100
COc1ccc(CNC(=O)c2cn3c(=O)n(Cc4ccccc4)c(=O)c(C)c3s2)cc1F [Example 46, 6-Benzyl-8-methyl-5,7-dioxo-6,7-dihydro-5H-thiazolo[3,2-c]pyrimidine-2-carboxylic acid 3-fluoro-4-methoxy-benzylamide] | > 30 | > 100 | > 100 | > 100
Cc1ccc(CNC(=O)c2cn3c(=O)n(Cc4ccccc4)c(=O)c(C)c3s2)cc1 [Example 48, 6-Benzyl-8-methyl-5,7-dioxo-6,7-dihydro-5H-thiazolo[3,2-c]pyrimidine-2-carboxylic acid 4-methyl-benzylamide] | 28 | > 30 | > 100 | > 100
Cc1c(=O)n(Cc2ccccc2)c(=O)n2cc(C(=O)NCc3ccc(C(F)(F)F)cc3)sc12 [Example 49, 6-Benzyl-8-methyl-5,7-dioxo-6,7-dihydro-5H-thiazolo[3,2-c]pyrimidine-2-carboxylic acid 4-trifluoromethyl-benzylamide] | > 100 | > 30 | > 100 | > 100
Cc1c(=O)n(Cc2ccccc2)c(=O)n2cc(C(=O)NCc3ccc(Cl)cc3)sc12 [Example 50, 6-Benzyl-8-methyl-5,7-dioxo-6,7-dihydro-5H-thiazolo[3,2-c]pyrimidine-2-carboxylic acid 4-chloro-benzylamide] | 31 | > 30 | > 100 | > 100
Cc1c(=O)n(Cc2ccccc2)c(=O)n2cc(C(=O)NCc3ccc(OC(F)(F)F)cc3)sc12 [Example 51, 6-Benzyl-8-methyl-5,7-dioxo-6,7-dihydro-5H-thiazolo[3,2-c]pyrimidine-2-carboxylic acid 4-trifluoromethoxy-benzylamide] | > 30 | > 30 | > 100 | > 100
COc1ccc(CNC(=O)c2cn3c(=O)n(Cc4ccc(C(=O)OCCN(C)C)cc4)c(=O)c(C)c3s2)cc1 [Example 57, 4-[2-(4-Methoxy-benzylcarbamoyl)-8-methyl-5,7-dioxo-7H-thiazolo[3,2c]pyrimidin-6-ylmethyl]-benzoic acid 2-dimethylamine-ethyl ester hydrochloride] | > 30 | > 30 | > 30 | > 30
Cc1c(=O)n(Cc2ccc(C(=O)OCCN(C)C)cc2)c(=O)n2cc(C(=O)NCc3ccc(F)cc3)sc12 [Example 60, 4-[2-(4-Fluoro-benzylcarbamoyl)-8-methyl-5,7-dioxo-7H-thiazolo[3,2-c]pyrimidin-6-ylmethyl]-benzoic acid 2-dimethylamino-ethyl ester] | > 100 | > 100 | > 100 | > 100
Cc1c(=O)n(Cc2ccc(C(=O)OCCN(C)C)cc2)c(=O)n2cc(C(=O)NCc3ccncc3)sc12 [Example 63, 4-{8-Methyl-5,7-dioxo-2-[(pyridin-4-ylmethyl)-carbamoyl]-7H-thiazolo[3,2-c]pyrimidin-6-ylmethyl}-benzoic acid 2-dimethylamino-ethyl ester dihydrochloride] | > 100 | > 100 | > 100 | > 100
Cc1nc(Cn2c(=O)c(C)c3sc(C(=O)NCc4ccc(F)cc4)cn3c2=O)cs1 [Example 64, 8-Methyl-6-(2-methyl-thiazol-4-ylmethyl)-5,7-dioxo-6,7-dihydro-5H-thiazolo[3,2-c]pyrimidine-2-carboxylic acid 4-fluoro-benzylamide] | > 100 | > 100 | > 30 | > 100
Cc1c(=O)n(Cc2ccc(F)cc2)c(=O)n2cc(C(=O)NCc3ccncc3)sc12 [Example 70, 6-(4-Fluoro-benzyl)-8-methyl-5,7-dioxo-6,7-dihydro-5H-thiazolo[3,2-c]pyrimidine-2-carboxylic acid(pyridin-4-ylmethyl)-amide hydrochloride] | > 30 | > 30 | > 30 | > 30
